This note sets out measurements from US8003645B2, “Preventives or remedies for Alzheimer's disease, or amyloid protein fibril-formation inhibitors, which include a nitrogen-containing heteroaryl compound” (BTG International Ltd., priority 2001, dated 2011).

Assay [1] relates to HeLa cells. Kind of assay: Action in inhibiting the lowering of MTT reduction capacity by Aβ1-40. Conditions: Homo sapiens; HeLa cells, Aβ1-40 (100 nM); read-out: IC50 (action in inhibiting the lowering of the MTT reduction capacity by Aβ1-40). The format is cell-based. The protocol:
The HeLa cells employed were purchased from the Dainippon Pharmaceutical Co.
The HeLa cells were seeded by suspension in MEM (Minimum essential medium; produced by the Sigma Chemical Co.) containing 10% inactivated FBS (foetal bovine serum) such that there were 1,000 per well in a 96-well microplate, and then culturing was carried out overnight in an incubator at 37° C. in the presence of 5% CO2.
The test compound was dissolved in dimethyl sulphoxide (DMSO) and diluted with the MEM medium so that the final concentration of DMSO was no more than 0.1 wt %, and added to the cells seeded the previous day. […] Overnight culturing was carried out using an incubator at 37° C. in the presence of 5% CO2, with 100 μL/well of MEM medium containing 5% deactivated FBS.
Now, prior to use, the Aβ1-40 had been dissolved in buffer and left overnight so that the amyloid coagulated.
In order to determine the percentage inhibition of the test compound, cells alone, cells where Aβ1-40 had been added, and cells where only the test compound had been added, were also incubated overnight under the same conditions.
The following day, there was added 10 μL/well of MTT [3-(4,5-dimethylthiazol-2-yl)-2,5-diphenyltetrazolium bromide: produced by Wako Pure Chemical Industries] prepared at a concentration of 5 mg/mL with phosphate buffered saline (PBS), and incubation carried out for 2 hours at 37° C. in the presence of 5% CO2. The medium was then eliminated and the formazan dye produced measured […] (A570 nm-A650 nm) using a Microplate Reader (produced by the Molecular Devices Co.), by dissolving with the addition of 100 μL per well of isopropanol. In this way, the change in the MTT reduction capacity of the HeLa cells was measured.
The percentage inhibition (%) by the test compound was determined from the following formula. inhibition (%) [[…]/(a−c)]×100 where • a=MTT reduction capacity when untreated • b=MTT reduction capacity when Aβ1-40 and the test compound are added • c=MTT reduction capacity when only Aβ1-40 is added

In assay [2] the target is Aβ1-42 (Homo sapiens, UniProt P05067). Kind of assay: Aβ fibril-formation inhibiting action, thioflavin binding assay. The format is biochemical. Conditions: for activity at 100 µg/mL: Aβ1-42 25 μM + compound 100 μg/mL, incubation 2 days at 37° C., Aβ1-42 alone taken as 100, read-out: fibril-formation inhibiting action (fluorescent intensity %); for Aβ fibril-formation (result in words): compound added prior to fibril formation, thioflavin fluorescence. The method, then:
(§1) The Aβ fibril-formation inhibiting action and fibrillar Aβ breakdown action were evaluated using the thioflavin binding assay method. The details of the test method are based on the method described in J. Biol. Chem. Vol. 274, 25945-25952 (1999).
In the measurement of the inhibition of Aβ fibril-formation, the concentration of the Aβ1-42 was 25 μM and the concentration of the compound synthesized in Production Example 4 or Production Example 12 was 100 μg/mL in each case. The measurement of the Aβ fibril-formation inhibiting action was carried out following incubation for 2 days at 37° C. of the Aβ1-42 alone and of the Aβ1-42 to which the compound synthesized in Production Example 4 or Production Example 12 had been added.
(§2) The measurements of the Aβ fibril-formation inhibiting action and of the fibrillar Aβ breakdown action were carried out by placing a 100 μL sample obtained by pretreatment as described above, plus 800 μL of distilled water, 1 mL of glycine (100 mM) and 50 μL of thioflavin (100 μM) in a cuvette, and measuring the fluorescence at an excitation wavelength of 435 nm and a fluorescence wavelength of 490 nm.
(§3) The figures in the table show the calculated percentages taking the fluorescent intensity obtained when the fluorescence of the sample obtained by incubating Aβ1-42 (25 μM) alone by the above method, and measured at an excitation wavelength of 435 nm and a fluorescence wavelength of 490 nm, was taken as 100. The figures are in the form of the average value ±standard deviation, for the three to nine averages obtained in three to nine tests. […] “Aβ” is for the Aβ1-42.

Assay [3] has as its target fibrillar Aβ1-42 (Homo sapiens, UniProt P05067). Kind of assay: Fibrillar Aβ breakdown action, thioflavin binding assay. The format is biochemical. Conditions: for fibrillar breakdown action (fluorescent intensity %): Aβ1-42 25 μM incubated 2 or 3 days at 37° C., then compound 100 μg/mL, further 2 days, Aβ1-42 alone taken as 100; for fibrillar Aβ breakdown action (result in words): compound added after fibril formation, thioflavin fluorescence. The method, then: as §1
In the measurement of the fibrillar Aβ breakdown action, the concentration of the Aβ1-42 was 25 μM and the concentration of the compound synthesized in Production Example 4 or Production Example 12 was 100 μg/mL in each case. After incubating the Aβ1-42 for 2 days or 3 days at 37° C., the compound synthesized in Production Example 4 or Production Example 12 was or was not added, and then further incubation performed for 2 days, after which measurement of the fibrillar Aβ breakdown action was performed.
as §2, §3

The subject of assay [4] is acute sections from the hippocampus. Nature of the assay: Suppression of Aβ1-42-induced long-term potentiation impairment (fEPSP slope) in acute hippocampal sections. The assay is classed as cell-based, Wistar rats. The method, then:
The method for testing the suppression of the impairment of long-term potentiation was based on that described in J. Neurosci. Vol. 20, 2003-10 (2000). That is to say, acute^i sections of thickness 400 μm were prepared from the hippocampus of the brains of 3-4 week old male Wistar rats. These acute sections were immersed in artificial cerebrospinal fluid in which β-amyloid protein (Aβ1-42: produced by the Sigma Chemical Co.) and compound from Production Examples 1 or 12 had been dissolved, and pretreatment carried out for 5 hours.
In the measurement using the compound from Production Example 1, the concentration of the Aβ1-42 in the artificial cerebrospinal fluid was 500 nM and the concentration of the compound from Production Example 1 was 1 μg/mL. In the measurement using the compound from Production Example 12, the concentration of the Aβ1-42 in the artificial cerebrospinal fluid was 1 μM and the concentration of the compound from Production Example 12 was 3 μg/mL. Now, the Aβ1-42 was used after coagulation of the amyloid by leaving overnight.
100 pulses of high frequency stimulation at 100 Hz were applied to the pretreated acute sections, and the field excitatory postsynaptic potential: fEPSP) measured by an extracellular recording method.
The fEPSP was measured at 30 second intervals following application of the high frequency stimulation and the fEPSP slope (units [%]) measured. The average values of the slope over 0-20 minutes, 20-40 minutes and 40-60 minutes were determined. This test was repeated five times over. In the table, the figures are the average values ±standard deviation for the five averages obtained in the five tests. […] “Aβ” denotes the Aβ1-42.
As controls, measurements were made of the fEPSP [mV] under the same conditions for acute sections pretreated with the artificial cerebrospinal fluid alone, acute sections pretreated with the artificial cerebrospinal fluid in which Aβ1-42 had been dissolved, and acute sections pretreated with artificial cerebrospinal fluid in which only the compound from Production Example 1 or 12 had been dissolved, and then the average value of the fEPSP slope [%] obtained.

Setting [5] is: Test 2, Aβ1-42 (1 μM) + compound 3 μg/mL.
Where [6] appears, read: Test 2, compound alone 3 μg/mL, no Aβ.

Chain of Aβ1-42 (P05067 672-713): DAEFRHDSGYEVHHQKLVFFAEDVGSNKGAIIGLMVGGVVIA
Chain of fibrillar Aβ1-42 (P05067 672-713): as above

The IC50 is the point on the concentration scale where inhibition reaches its midpoint. As for `Cc1nc(Nc2cccc(O)c2)cc(Nc2cccc(O)c2)n1` [Production Example 4, 2-Methyl-N,N′-bis(3-hydroxyphenyl)pyrimidine-4,6-diamine], in assay [1], the IC50 came to 6 µM. In assay [2], the activity at 100 µg/mL was 16.3 ± 5.3% and the “Aβ fibril-formation (result in words)” value was “Aβ fibril-formation was inhibited”. Besides, in assay [3], the “fibrillar breakdown action (fluorescent intensity %)” value worked out at 30.63 ± 1.26% and the “fibrillar Aβ breakdown action (result in words)” value is “there was a fibrillar Aβ breakdown action”.

Consider `Oc1cccc(Nc2ccc(Nc3cccc(O)c3)nn2)c1` [Production Example 12, N,N′-bis(3-hydroxyphenyl)pyridazine-3,6-diamine], for which, in assay [4] (setting [5]), the “Value of fEPSP Slope [%] 0-20 minutes” value stood at 161.7 ± 2.6%, the “Value of fEPSP Slope [%] 20-40 minutes” value is 148.1 ± 3.1% and the “Value of fEPSP Slope [%] 40-60 minutes” value stood at 146.2 ± 4.6%. Further, in assay [4] (setting [6]), the “Value of fEPSP Slope [%] 0-20 minutes” value is listed as 175.3 ± 7.4%, the “Value of fEPSP Slope [%] 20-40 minutes” value is 162.9 ± 9.8% and the “Value of fEPSP Slope [%] 40-60 minutes” value was 160.8 ± 10.3%. Also, in assay [4] (compound alone, no Aβ), the “effect of compound on its own on LTP (result in words)” value is “inactive on its own”. Further, in assay [4] (pretreating 5 hours with Aβ1-42 together with the compound), the “impairment of the LTP due to Aβ1-42 (result in words)” value was “suppressed”. In addition, in assay [2], the activity at 100 µg/mL came to 1.69 ± 1.32% and the “Aβ fibril-formation (result in words)” value is recorded as “Aβ fibril-formation was inhibited”. In addition, in assay [3], the “fibrillar breakdown action (fluorescent intensity %)” value stood at 28.49 ± 5.17% and the “fibrillar Aβ breakdown action (result in words)” value was “there was a fibrillar Aβ breakdown action”.
